Numbers after ± are expanded uncertainties.
Details: Liquid, Ebulliometric method (Recirculating still)

COC(C)=O [methyl ethanoate]
Details | vapor or sublimation pressure [kPa]
304 K | 37.14 ± 0.19
306 K | 40.4 ± 0.21
308 K | 43.89 ± 0.22
310 K | 47.62 ± 0.24
312 K | 51.6 ± 0.26
314 K | 55.85 ± 0.28
316 K | 60.38 ± 0.31
318 K | 65.21 ± 0.33
320 K | 70.34 ± 0.36
322 K | 75.79 ± 0.39
324 K | 81.58 ± 0.41
326 K | 87.72 ± 0.45
328 K | 94.23 ± 0.48
330 K | 101.12 ± 0.51
332 K | 108.41 ± 0.55
334 K | 116.11 ± 0.59
336 K | 124.25 ± 0.63
338 K | 132.83 ± 0.67

Source: the NIST ThermoML archive (doi:10.1021/je600518s)
